Experimental data: patent US20250129067A1 (Progentos Therapeutics, Inc., priority 2021, published 2025)
Like-named read-outs stand apart in the source and are kept apart here.

Tests used:
PDGFRα = PDGFRα (Homo sapiens (Human), UniProt P16234); assay: PDGFRα kinase enzyme assay (Promega PDGFRα Kinase Enzyme System, ADP-Glo); type: biochemical; conditions: 150 uM ATP
Outline: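 Purified PDGFRα protein (20 ng) reacted with test compound per the Promega kinase system protocol. ADP formed was measured by ADP-Glo luminescence against a standard curve, giving IC50.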

[1] = test system: Oligodendrocyte progenitor cells (OPCs); assay: In vitro OPC differentiation assay, GPR17 expression (immunocytochemistry); conditions: 72 hours; for GPR17 Fold Induction (Over Vehicle; 3 μM): 3 μM (10× concentration, final 0.3 μM), fold change over vehicle
[2] = 11-point dose response, 10,000 nM to 0.169 nM, BLQ = below limit of quantitation, read-out: IC50 Values on PDGFRα Kinase Inhibition, IC50

PDGFRα, sequence (P16234 24-1089): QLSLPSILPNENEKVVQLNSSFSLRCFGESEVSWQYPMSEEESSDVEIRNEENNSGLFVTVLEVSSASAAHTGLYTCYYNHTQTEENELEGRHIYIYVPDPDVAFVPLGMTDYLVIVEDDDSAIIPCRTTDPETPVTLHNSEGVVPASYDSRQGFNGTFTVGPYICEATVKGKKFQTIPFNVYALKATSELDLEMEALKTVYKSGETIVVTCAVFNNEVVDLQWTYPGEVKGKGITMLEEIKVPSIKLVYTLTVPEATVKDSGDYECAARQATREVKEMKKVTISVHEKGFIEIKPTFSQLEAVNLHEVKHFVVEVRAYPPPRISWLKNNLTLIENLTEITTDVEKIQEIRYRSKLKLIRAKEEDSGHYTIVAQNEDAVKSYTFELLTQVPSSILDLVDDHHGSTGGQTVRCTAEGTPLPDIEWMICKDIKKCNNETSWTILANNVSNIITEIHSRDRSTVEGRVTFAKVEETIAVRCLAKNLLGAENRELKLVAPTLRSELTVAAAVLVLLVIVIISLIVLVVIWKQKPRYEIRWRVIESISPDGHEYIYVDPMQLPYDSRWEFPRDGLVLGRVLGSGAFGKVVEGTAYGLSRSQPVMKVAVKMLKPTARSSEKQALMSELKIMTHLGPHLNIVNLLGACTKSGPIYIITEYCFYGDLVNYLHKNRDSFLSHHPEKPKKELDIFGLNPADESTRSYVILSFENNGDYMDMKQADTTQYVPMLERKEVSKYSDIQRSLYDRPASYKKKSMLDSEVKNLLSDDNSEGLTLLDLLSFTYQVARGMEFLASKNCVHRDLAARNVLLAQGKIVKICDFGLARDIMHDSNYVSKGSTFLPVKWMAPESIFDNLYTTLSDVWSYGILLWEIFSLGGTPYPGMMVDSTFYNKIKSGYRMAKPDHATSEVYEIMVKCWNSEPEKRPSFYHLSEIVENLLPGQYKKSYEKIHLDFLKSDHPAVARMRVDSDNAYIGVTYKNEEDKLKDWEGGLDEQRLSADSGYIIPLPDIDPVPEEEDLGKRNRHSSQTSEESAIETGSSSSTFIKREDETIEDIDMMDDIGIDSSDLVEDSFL

IC50 (PDGFRα; [2]) | GPR17 Fold Induction (Over Vehicle; 3 μM) [1] | Compound | IC50 (PDGFRα; 20 ng purified PDGFRα, Poly (Glu4Tyr1) substrate, two hours, 11-point dose response, read-out: IC50 Values on PDGFRα Kinase Inhibition) | GPR17 Fold Induction (Over Vehicle; 5 μM) ([1]; primary rat OPCs, 5 μM (10x; final 0.5 μM per method), percent GPR17+ cells as fold change over vehicle)
> 10 µM | 1.36 | CN(CCN(C)c1cnn2cc(-c3cnn(C)c3)ccc12)c1ncc(Cc2ccccc2)cn1 [Compound 127, N^1-(5-benzylpyrimidin-2-yl)-N^1,N^2-dimethyl-N^2-(6-(1-methyl-1H-pyrazol-4-yl)pyrazolo[1,5-a]pyridin-3-yl)ethane-1,2-diamine] | – | –
> 10 µM | 2.96 | Cn1cc(-c2ccc3c(N4CCN(c5ncc(Cc6ncon6)cn5)CC4)cnn3c2)cn1 [Compound 301, 3-((2-(4-(6-(1-methyl-1H-pyrazol-4-yl)pyrazolo[1,5-a]pyridin-3-yl)piperazin-1-yl)pyrimidin-5-yl)methyl)-1,2,4-oxadiazole] | – | –
> 10 µM | 0.58 | CC(C)(C)OC(=O)N1CCCN(c2cnc3nc(C4CCOC4)ccn23)CC1 (stereo not drawn) [Compound 107, tert-butyl 4-(7-(tetrahydrofuran-3-yl)imidazo[1,2-a]pyrimidin-3-yl)-1,4-diazepane-1-carboxylate] | – | –
> 10 µM | 1.55 | CN1CCC(c2ccc3c(N4CCN(C(=O)OC(C)(C)C)CC4)cnn3c2)CC1 [Compound 225, tert-butyl 4-(6-(1-methylpiperidin-4-yl)pyrazolo[1,5-a]pyridin-3-yl)piperazine-1-carboxylate] | – | –
5.69 µM | 4.45 | Cn1cc(-c2ccc3c(N4CCC(C(=O)NCc5ccccc5)CC4)cnn3c2)cn1 [Compound 146, N-benzyl-1-(6-(1-methyl-1H-pyrazol-4-yl)pyrazolo[1,5-a]pyridin-3-yl)piperidine-4-carboxamide] | – | –
4.31 µM | 1.11 | Cn1cc(-c2ccc3c(N4CCN(C(=O)OCC5CCOCC5)CC4)cnn3c2)cn1 [Compound 14, Tetrahydro-2H-pyran-4-ylmethyl 4-[6-(1-methyl-1H-pyrazol-4-yl)pyrazolo[1,5-a]pyridin-3-yl]piperazine-1-carboxylate] | – | –
3.67 µM | 2.51 | COc1ccccc1-c1ccc2c(N3CCN(C(=O)OC(C)(C)C)CC3)cnn2c1 [Compound 212, tert-butyl 4-(6-(2-methoxyphenyl)pyrazolo[1,5-a]pyridin-3-yl)piperazine-1-carboxylate] | – | –
5.05 µM | 0.99 | Cn1cc(-c2ccc3c(C4CCC(C(=O)OCc5ccccc5)C4)cnn3c2)cn1 (stereo not drawn) [Compound 137] | – | –
1.24 µM | 4.35 | Cn1cc(-c2ccc3c(N4CCN(c5ncc(CC6CCOCC6)cn5)CC4)cnn3c2)cn1 [Compound 68, 6-(1-methyl-1H-pyrazol-4-yl)-3-{4-[5-(tetrahydro-2H-pyran-4-ylmethyl)pyrimidin-2-yl]piperazin-1-yl}pyrazolo[1,5-a]pyridine] | – | –
0.0317 µM | 8.65 | Cn1cc(-c2cnn3c(N4CCN(C(=O)NCc5ccc(C(F)(F)F)cc5)CC4)cnc3c2)cn1 [Compound 295, 4-(7-(1-methyl-1H-pyrazol-4-yl)imidazo[1,2-b]pyridazin-3-yl)-N-(4-(trifluoromethyl)benzyl)piperazine-1-carboxamide] | – | –
> 10 µM | 1.78 | Cn1cc(-c2ccc3c(N4CCN(C(=O)OC5CCOCC5)CC4)cnn3c2)cn1 [Compound 39, tetrahydro-2H-pyran-4-yl 4-[6-(1-methyl-1H-pyrazol-4-yl)pyrazolo[1,5-a]pyridin-3-yl]piperazine-1-carboxylate] | – | –
2.11 µM | 3.67 | Cn1cc(-c2ccc3c(N4CCN(C(=O)OCC5CC(F)(F)C5)CC4)cnn3c2)cn1 [Compound 308, (3,3-difluorocyclobutyl)methyl 4-[6-(1-methyl-1H-pyrazol-4-yl)pyrazolo[1,5-a]pyridin-3-yl]piperazine-1-carboxylate] | – | –
> 10 µM | 0.62 | Cn1cc(-c2ccc3c(C4=CCC(COc5ccccc5)CC4)cnn3c2)cn1 (stereo not drawn) [Compound 243, 1-methyl-4-{3-[4-(phenoxymethyl)cyclohex-1-en-1-yl]pyrazolo[1,5-a]pyridin-6-yl}pyrazole] | – | –
8.81 µM | 3.87 | CN(Cc1ccccc1)C(=O)C1CCC(c2cnn3cc(-c4cnn(C)c4)ccc23)CC1 (stereo not drawn) [Compound 139, N-benzyl-N-methyl-4-(6-(1-methyl-1H-pyrazol-4-yl)pyrazolo[1,5-a]pyridin-3-yl)cyclohexane-1-carboxamide] | – | –
0.696 µM | 6.03 | CC(C)(C)OC(=O)N1CCN(c2cnn3cc(-c4cnn5c4CCCC5)ccc23)CC1 [Compound 236, tert-butyl 4-(4,5,6,7-tetrahydro-[3,6′-bipyrazolo[1,5-a]pyridin]-3′-yl)piperazine-1-carboxylate] | – | –
> 10 µM | 1.20 | CC(C)(C)OC(=O)N1CCN(c2cnn3cc(CCCO)ccc23)CC1 [Compound 204, tert-butyl 4-(6-(3-hydroxypropyl)pyrazolo[1,5-a]pyridin-3-yl)piperazine-1-carboxylate] | – | –
0.825 µM | 9.79 | Cn1cc(-c2ccc3c(N4CCN(c5ncc(Cc6ccoc6)cn5)CC4)cnn3c2)cn1 [Compound 169, 3-(4-(5-(furan-3-ylmethyl)pyrimidin-2-yl)piperazin-1-yl)-6-(1-methyl-1H-pyrazol-4-yl)pyrazolo[1,5-a]pyridine] | – | –

The next lines start with the compound.

Compound | IC50 (PDGFRα; [2]) | GPR17 Fold Induction (Over Vehicle; 3 μM) [1] | IC50 (PDGFRα; 20 ng purified PDGFRα, Poly (Glu4Tyr1) substrate, two hours, 11-point dose response, read-out: IC50 Values on PDGFRα Kinase Inhibition) | GPR17 Fold Induction (Over Vehicle; 5 μM) ([1]; primary rat OPCs, 5 μM (10x; final 0.5 μM per method), percent GPR17+ cells as fold change over vehicle)
CC(C)(C)OC(=O)N1CCN(c2cnn3cc(-c4cncn4CCO)ccc23)CC1 [Compound 230, tert-butyl 4-(6-(1-(2-hydroxyethyl)-1H-imidazol-5-yl)pyrazolo[1,5-a]pyridin-3-yl)piperazine-1-carboxylate] | > 10 µM | 0.97 | – | –
Cn1cc(-c2ccc3c(C4CCC(COc5ccccc5)CC4)cnn3c2)cn1 (stereo not drawn) [Compound 138, 6-(1-methyl-1H-pyrazol-4-yl)-3-(4-(phenoxymethyl)cyclohexyl)pyrazolo[1,5-a]pyridine] | 9.01 µM | 0.98 | – | –
Cn1cc(-c2ccc3c(N4CCN(c5ncc(Cc6ccccc6)cn5)CC4)nnn3c2)cn1 [Compound 9, 3-[4-(5-benzylpyrimidin-2-yl)piperazin-1-yl]-6-(1-methyl-1H-pyrazol-4-yl)[1,2,3]triazolo[1,5-a]pyridine] | > 10 µM | 1.88 | – | –
Cn1cc(-c2ccc3c(N4CC=C(c5ncc(Cc6ccccc6)cn5)CC4)cnn3c2)cn1 [Compound 300, 3-(4-(5-benzylpyrimidin-2-yl)-3,6-dihydropyridin-1 (2H)-yl)-6-(1-methyl-1H-pyrazol-4-yl)pyrazolo[1,5-a]pyridine] | 3.55 µM | 1.24 | – | –
COC(=O)[C@@]1(O)C[C@H]2O[C@]1(C)n1c3ccccc3c3c4c(c5c6ccccc6n2c5c31)C(=O)NC4 [Compound K252a, K252a, reference compound] | – | – | 0.427 µM | 2.53
Cn1cc(-c2ccc3c(N4CCN(c5ncc(CCC(O)c6ccccc6)cn5)CC4)cnn3c2)cn1 (stereo not drawn) [Compound 165, 3-(2-(4-(6-(1-methyl-1H-pyrazol-4-yl)pyrazolo[1,5-a]pyridin-3-yl)piperazin-1-yl)pyrimidin-5-yl)-1-phenylpropan-1-ol] | 0.686 µM | 18.42 | – | –
Cn1cc(-c2ccc3c(C4CCC(C(=O)OCc5ccccc5)CC4)cnn3c2)cn1 (stereo not drawn) [Compound 136, benzyl 4-(6-(1-methyl-1H-pyrazol-4-yl)pyrazolo[1,5-a]pyridin-3-yl)cyclohexane-1-carboxylate] | > 10 µM | 3.64 | – | –
CCC(O)c1ccc2c(N3CCN(C(=O)OC(C)(C)C)CC3)cnn2c1 (stereo not drawn) [Compound 298, tert-butyl 4-(6-(1-hydroxypropyl)pyrazolo[1,5-a]pyridin-3-yl)piperazine-1-carboxylate] | > 10 µM | 1.56 | – | –
CC(C)(C)OC(=O)N1CCN(c2cnn3cc(-c4cncn4CCCN4CCOCC4)ccc23)CC1 [Compound 232, tert-butyl 4-(6-(1-(3-morpholinopropyl)-1H-imidazol-5-yl)pyrazolo[1,5-a]pyridin-3-yl)piperazine-1-carboxylate] | > 10 µM | 1.03 | – | –
Cn1cc(-c2ccc3c(N4CCN(C(=O)O[C@@H]5CCc6cc(Cl)ccc65)CC4)cnn3c2)cn1 [Compound 314, (1R)-5-chloro-2,3-dihydro-1H-inden-1-yl 4-[6-(1-methyl-1H-pyrazol-4-yl)pyrazolo[1,5-a]pyridin-3-yl]piperazine-1-carboxylate] | 7.55 µM | 1.64 | – | –
Cn1cc(-c2ccc3c(N4CCN(S(=O)(=O)NCc5ccccc5)CC4)cnn3c2)cn1 [Compound 159, N-benzyl-4-[6-(1-methyl-1H-pyrazol-4-yl)pyrazolo[1,5-a]pyridin-3-yl]piperazine-1-sulfonamide] | 0.45 µM | 3.62 | – | –
Cn1cc(-c2cc3ncc(N4CCN(C(=O)OC(C)(C)C)CC4)n3cn2)cn1 [Compound 83, tert-butyl 4-(7-(1-methyl-1H-pyrazol-4-yl)imidazo[1,2-c]pyrimidin-3-yl)piperazine-1-carboxylate] | 0.948 µM | 6.49 | – | –
Cn1cc(-c2ccc3c(N4CCN(C(=O)OCc5csc(Cl)c5)CC4)cnn3c2)cn1 [Compound 197, (5-chlorothiophen-3-yl)methyl 4-(6-(1-methyl-1H-pyrazol-4-yl)pyrazolo[1,5-a]pyridin-3-yl)piperazine-1-carboxylate] | 0.0653 µM | 12.24 | – | –
